This note sets out measurements from US20060014641A1 (priority 2004, published 2006).

Molecules are shown by their SMILES.

Assay [1] has as its system boll weevil larvae. In words: Boll weevil larvae bioassay (agar liquid diet). To be noted: in vivo. Here is the method:
Boll Weevil Larvae Bioassay
Assays for activity against boll weevil larvae are carried out by incorporating the test sample into a agar liquid diet similar to that for southern corn rootworm [Marrone P. G., Ferri F. D., Mosley T. R., Meinke L. J., “Improvements in laboratory rearing of the southern corn rootworm, Diabrotica undecimpunctata howardi Barber (Coleoptera: Chrysomelidae) on artificial diet and corn,” Journal of Economic Entomology, 78:290-3, 1985]. The test sample is substituted for the 20% water component. Neonate larvae are allowed to feed on the diet and mortality and growth stunting are evaluated.

Assay [2] concerns adult boll weevils. In words: Boll weevil reproduction test. In kind it is in vivo. To be noted: oxalate in standard diet. Here is the method:
Preoviposition: Approximately 220 adult boll weevils, collected within 2 days of emergence, are divided into two groups. […] The adults are allowed to feed and mate for four days at which time mortality is determined. Oviposition study: These two groups of adults are then divided into two subgroups and individually placed on artificial, oxalate-containing or control bolls. […] After three days at 27% C, the adults are removed and ten bolls from each of the four groups are removed and examined for eggs. The remaining bolls are incubated for an additional 7 days at 27% C to allow development of larvae. The bolls are then dissected and the eggs and larvae, dead and surviving, are counted. • Group 1=Control Adults placed on control bolls • Group 2=Control Adults placed on treated bolls • Group 3=oxalate-fed adults placed on control bolls • Group 4=oxalate-fed adults placed on treated bolls Mode of Action Studies

Assay [3] has as its system boll weevil larvae. In words: Cotton seed diet assay. In kind it is in vivo. The following applies: cottonseed flour diets, after six days, in the presence of cotton plant components. On the procedure: Two treatment diets are made by mixing 30 g of one of two types of cottonseed flour into 170 mL of a 1.6% agar solution at 50% C, containing 0.13% propionic acid, 0.014% phosphoric acid, and 30 mg each of streptomycin sulfate and chlortetracycline. Before mixing, 10% KOH was used to adjust the pH to 6.2. One test diet utilized raw cottonseed flour (Sigma) as the nutrient source; the other utilized Pharmamedia.™. (Traders Protein), a flour made up of cottonseed embryos. The diets were incubated in a water bath at 40% C. Dilutions of the oxalate are incorporated into the diets as described above. Boll weevil larvae are allowed to feed and mortality rates are determined after six days.

Assay [4] relates to Lepidopteran larvae. The assay is described as follows: Lepidopteran larvae bioassay (artificial diet). Further details: species or system lepidopteran insects. The following applies: in vivo. On the procedure: Lepidopteran Larvae Bioassay
Lepidopteran larvae are tested on artificial diet treated with various amounts of oxalate for a number of days.

Assay [5] relates to boll weevil larvae. The assay is described as follows: Homogenized cotton leaf tissue assay. Format: in vivo. The following applies: cotton leaf tissue agar diet, evaluated six days later. On the procedure: Homogenized Cotton Leaf Tissue Assay In order to test oxalate against boll weevil larvae in a host tissue diet environment, a study is conducted in which cotton leaf tissue is the only nutritional component of an agar-based diet. Two cotton leaves (each approx. 5 inches wide) with stems are homogenized at 50% C into 170 mL of a 1.6% agar solution containing 0.13% propionic acid, 0.014% phosphoric acid, and 30 mg each of streptomycin sulfate and chlortetracycline. Before addition of the leaves, 10% KOH is used to adjust the pH of the agar solution to 6.2. The leaf “diet” is allowed to cool to 40% C. Dilutions of oxalate and a water control are incorporated into the leaf “diet”, poured into insect diet trays and allowed to cool. Boll weevil eggs are added to the diet wells. The assay is evaluated six days later. […] This will illustrate that the oxalate is insecticidal in the presence of intact cotton tissue and cells.

Turning to `O=C(O)C(=O)O` [Oxalate, oxalic acid], in assay [1], the “effect on boll weevil larvae” value is recorded as “lethal”. Besides, the “effect on reproductive cycle of adult boll weevils” value is listed as “affect the reproductive cycle” in assay [2] and “interrupt the reproductive cycle” in assay [2] (listed as Oxlate). The “mortality of boll weevil larvae” value in assay [3] is “lethal”. Besides, the “mortality and stunting of larvae of lepidopteran insects” value in assay [4] was “mortality and stunting”. For the same compound, the “insecticidal activity in the presence of cotton leaf tissue” value in assay [5] is given as “maintains its insecticidal activity”.
